Reference: patent EP1263444B1, “USE OF XANTHINE DERIVATIVES FOR PREPARING A MEDICINE FOR PREVENTING AND TREATING OSTEOPOROSIS” (Aventis Pharma S.A., priority 2000, dated 2001)

Tests used:
Type in all cases: in vivo
[1] = tested on: rate ovariectomisée; experiment: Serum cholesterol level in the ovariectomised rat model; details: 10 mg/kg po, 4 weeks, decrease of serum cholesterol in % versus OVX animals receiving solvent only
Description: (§1) L'impact osseux des dérivés de xanthine selon l'invention a été évalué sur un modèle d'ostéopénie, la rate ovariectomisée à l'âge de 3 mois, afin de déterminer son effet sur la masse osseuse, et sur l'activité de formation et de résorption osseuse sur ce modèle. Les animaux sont traités en préventif.
(§2) Sur ce modèle d'ostéopénie l'effet d'un dérivé xanthine est comparé à celui de la PTH • Produit à tester : Le [1-(3-phénylxanthin-1-yl)méthyl] diméthylphosphine oxide • véhicule(s) : méthylcellulose 0,5 % ou sérum physiologique • dose(s) : 10 mg/kg pour le produit. la PTH est administrée à la dose de 10 et 25 µg/kg/j par voie sous cutanée • nombre d'administrations : une fois/jour; 5 jours/semaine pendant 4 semaines • voie d'administration : voie orale pour le produit. La PTH est administrée par voie sous cutanée • volume : 1 ml/kg p o et s c • délai entre l'injection et le sacrifice : 24 heures • nombre d'administrations : 20.
(§3) Des rats femelles âgées de 3 mois et pesant environ 250-300 g sont ovariectomisées sous anesthésie à l'Imalgène 1000, à la dose de 100 mg/kg par voie intrapéritonéale (i.p) et sous un volume de 1 ml/kg. Ils reçoivent également du Nembutal (3 mg/kg i.p. sous un volume de 0,3 ml/kg). Les animaux sont répartis en groupes de 8 rats.
(§4) Après incision latérale, les plans cutanés et musculaires sont sectionnés. L'exérèse de chaque ovaire se fait après ligature de l'oviducte. […]

[2] = tested on: rate ovariectomisée; experiment: Bone mineral density (DEXA) of the left tibia in the ovariectomised rat osteopenia model, preventive treatment; details: 10 mg/kg po, once daily, 5 days/week for 4 weeks; (BMD treated - BMD OVX)/(BMD SHAM - BMD OVX) x 100
Description: as §1, §2, §3, §4

[3] = tested on: rate ovariectomisée; experiment: Uterus weight in the ovariectomised rat model; details: 10 mg/kg po, 4 weeks, weight increase in % of uterus weight of OVX animals receiving solvent only
Description: as §1, §2, §3, §4

UTERUS Poids % [3]: 10%
UTERUS Poids % ([3]; listed as Ce produit): aucune activité utérotrophique
SMILES: CP(C)(=O)Cn1c(=O)c2[nH]cnc2n(-c2ccccc2)c1=O [Dérivé xanthine, [1-(3-phénylxanthin-1-yl)méthyl] diméthylphosphine oxide]
Cholestérol % [1]: Pas d'effet
Cholestérol % ([1]; listed as Ce produit): pas d'effet
OS TIBIA Densité % [2]: 40%
